Data as given in patent US7704997B1, “Amino-tetrazole analogues and methods of use” (Abbott Laboratories, priority 2004, dated 2010).

Biological target: T1, P2X7 receptor (Homo sapiens, UniProt Q99572)
T1 construct: host or cells: THP-1 monocytic cells differentiated overnight with LPS (25 ng/ml) and IFN-gamma (10 ng/ml)
T1 sequence (Q99572 1-595): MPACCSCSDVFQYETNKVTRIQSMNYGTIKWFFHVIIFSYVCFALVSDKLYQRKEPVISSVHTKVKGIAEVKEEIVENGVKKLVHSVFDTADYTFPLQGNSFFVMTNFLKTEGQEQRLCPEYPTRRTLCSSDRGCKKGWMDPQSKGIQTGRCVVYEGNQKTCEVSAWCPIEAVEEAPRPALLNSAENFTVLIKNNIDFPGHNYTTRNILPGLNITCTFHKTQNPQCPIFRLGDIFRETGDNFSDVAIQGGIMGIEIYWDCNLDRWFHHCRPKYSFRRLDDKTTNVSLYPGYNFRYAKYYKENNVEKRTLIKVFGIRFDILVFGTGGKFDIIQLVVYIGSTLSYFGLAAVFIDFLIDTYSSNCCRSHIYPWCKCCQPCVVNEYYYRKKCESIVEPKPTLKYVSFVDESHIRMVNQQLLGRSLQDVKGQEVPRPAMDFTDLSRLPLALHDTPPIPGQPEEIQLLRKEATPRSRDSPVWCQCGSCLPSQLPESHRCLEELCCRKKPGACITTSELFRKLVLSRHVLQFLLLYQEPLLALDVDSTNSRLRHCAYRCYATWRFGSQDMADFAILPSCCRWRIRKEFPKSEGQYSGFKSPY
Assay: P2X7 mediated pore formation (YO-PRO dye uptake, FLIPR)
Format: cell-based
Conditions: THP-1 cells
From the text: Tissue Culture: Cells of the THP-1 monocytic cell line (American Type Culture Collection, Rockville, Md.) were maintained in the log phase of growth in RPMI medium containing high glucose and 10% fetal calf serum (Invitrogen, Carlsbad, Calif.) according to established procedures (Humphrey B D and Dubyak G R (1996), Induction of the P2z/P2X7 Nucleotide Receptor and Associated Phospholipase D Activity by Lipopolysaccharide and IFN-γ in the Human THP-1 Monocytic Cell Line. J. Immunology 157:5627-37). Fresh vials of frozen THP-1 cells were initiated for growth every eight weeks. […]
P2X7 Mediated Pore Formation. […] Accordingly, the inhibitory activity of the antagonists of the present invention was determined by their capacity to inhibit the agonist-induced pore formation using the fluorescent dye YO-PRO (MW=629) and Fluorometric Imaging Plate Reader (FLIPR, Molecular Devices, Sunnydale, Calif.). […] The intensity of the fluorescence was captured by the CCD camera every 15 seconds for the first 10 minutes of agonist exposure followed by every 20 seconds for an additional 50 minutes with the data being digitally transferred to an interfaced PC. […] The test compounds were incubated for 10 minutes with the THP-1 cells at room temperature, after which the cells were stimulated with BzATP and fluorescence measured as described above in the […] of the antagonist. […]

- EC70 value for agonist activation: 50 µM
Substance: benzoylbenzoic ATP [BzATP]
